Assay results reported in patent publication US7732452B2, “Thiophene derivatives which are HM74A agonists” (Hoffmann-La Roche Inc., priority 2005, dated 2010).

Columns and labels:
HM74A = biological target: T1, HM74A (Homo sapiens, UniProt Q8TDS4); test: Secondary fluorescent calcium indicator assay (FLIPR); format: cell-based; conditions: HEK-293 cells stably expressing HM74A and chimeric G protein Gqi9; % stimulation of maximal nicotinic acid response (100 μM)
T1 construct: expressed in transfected cells; pcDNA3.1 vectors; co-expressing chimeric G protein Gqi9
T1 sequence (Q8TDS4 whole entry): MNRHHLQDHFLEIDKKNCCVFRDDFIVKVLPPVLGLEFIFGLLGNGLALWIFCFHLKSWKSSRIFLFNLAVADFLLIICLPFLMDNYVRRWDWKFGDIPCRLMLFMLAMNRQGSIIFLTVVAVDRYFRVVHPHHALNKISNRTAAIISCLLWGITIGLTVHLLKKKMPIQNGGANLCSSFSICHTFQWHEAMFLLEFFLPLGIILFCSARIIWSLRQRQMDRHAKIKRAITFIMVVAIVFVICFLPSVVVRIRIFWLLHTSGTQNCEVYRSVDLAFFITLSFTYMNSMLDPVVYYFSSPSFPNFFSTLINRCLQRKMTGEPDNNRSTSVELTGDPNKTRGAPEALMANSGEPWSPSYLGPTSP
Procedure: Secondary Fluorescent Calcium Indicator Assay (FLIPR)
HEK-293 cells were grown in tissue culture medium (DMEM/Nut mix F12 Medium with Glutamax I (Invitrogen), containing 10% FBS) at 37° C. in a 5% CO2 atmosphere. These cells were cultured in 6-well dishes at 3×10^5 cells/well and double transfected with DNA vectors (pcDNA3.1, Invitrogen) expressing either HM74A or HM74 and the chimeric G protein Gqi9. Two days after transfection the wells were combined and plated in 150 cm^2 flasks, in the presence of 50 μg/ml Hygromycin (Invitrogen) and 500 μg/ml Geneticin (Gibco). Fourteen days after plating, colonies were picked, expanded and analyzed for expression using a functional assay (FLIPR). Stable transfected HEK-293 cells expressing either HM74A or HM74 and the chimeric G protein Gqi9 were plated at 50,000 cells/well in black 96-well plates with clear bottom (Costar) and cultured to confluency overnight in growth media (DMEM/Nut mix F12 Medium with Glutamax I (Invitrogen), containing 10% FBS) at 37° C. in a humidified cell incubator containing 5% CO2. Growth media was aspirated and replaced with 100 μl of 1×FLIPR Calcium Assay Dye (Molecular Devices) in Hank's balanced salt solution (HBSS) containing 10 mM HEPES, and […] probenecid (Sigma), for 1 hour at 37° C. Cell plates were transferred to a FLIPR unit (Molecular Devices), and 50 μl of 3× compound dilution were added. Fluorescence emissions were measured and the effects of compounds were expressed as % stimulation of maximal nicotinic acid response (100 μM). Sigmoidal curves were fitted using the XLfit3 program (ID Business Solutions Ltd. UK) and EC50 values determined.

EC50 (HM74A)	melting point	Structure (SMILES)
0.131 µM		O=C(COc1ccc(-c2ccc(F)cc2)cn1)Nc1cscc1C(=O)O [Example 11, 4-{2-[5-(4-Fluoro-phenyl)-pyridin-2-yloxy]-acetylamino}-thiophene-3-carboxylic acid]
	258 to 264 °C	O=C(COc1ccc(Cl)c(Cl)c1)Nc1cscc1C(=O)O [Example 18, 4-[2-(3,4-Dichloro-phenoxy)-acetylamino]-thiophene-3-carboxylic acid]
	207 to 209 °C	Cc1ccccc1-c1ccc(OCC(=O)Nc2cscc2C(=O)O)cc1 [Example 5, 4-[2-(2′-Methyl-biphenyl-4-yloxy)-acetylamino]-thiophene-3-carboxylic acid]
0.225 µM		CC(C)(C)c1ccc(OCC(=O)Nc2cscc2C(=O)O)cc1 [Example 23, 4-[2-(4-tert-Butyl-phenoxy)-acetylamino]-thiophene-3-carboxylic acid]
	187 to 189 °C	COc1cccc(-c2ccc(OCC(=O)Nc3cscc3C(=O)O)cc2)c1 [Example 7, 4-[2-(3′-Methoxy-biphenyl-4-yloxy)-acetylamino]-thiophene-3-carboxylic acid]
	212 to 214 °C	CC(=O)c1cccc(-c2ccc(OCC(=O)Nc3cscc3C(=O)O)cc2)c1 [Example 8, 4-[2-(3′-Acetyl-biphenyl-4-yloxy)-acetylamino]-thiophene-3-carboxylic acid]
	194 to 197 °C	COc1ccccc1-c1ccc(OCC(=O)Nc2cscc2C(=O)O)nc1 [Example 10, 4-{2-[5-(2-Methoxy-phenyl)-pyridin-2-yloxy]-acetylamino}-thiophene-3-carboxylic acid]
	250 to 253 °C	CC(=O)Nc1cccc(-c2ccc(OCC(=O)Nc3cscc3C(=O)O)cc2)c1 [Example 6, 4-[2-(3′-Acetylamino-biphenyl-4-yloxy)-acetylamino]-thiophene-3-carboxylic acid]
	216 to 218 °C	O=C(COc1ccc(-c2cccc(Cl)c2)cc1)Nc1cscc1C(=O)O [Example 4, 4-[2-(3′-Chloro-biphenyl-4-yloxy)-acetylamino]-thiophene-3-carboxylic acid]
	218 to 223 °C	O=C(COc1ccc(-c2ccccc2Cl)cn1)Nc1cscc1C(=O)O [Example 19, 4-{2-[5-(2-Chloro-phenyl)-pyridin-2-yloxy]-acetylamino}-thiophene-3-carboxylic acid]
	244 to 251 °C	O=C(COc1ccc(-c2ccc(F)cc2)cc1)Nc1cscc1C(=O)O [Example 1, 4-[2-(4′-Fluoro-biphenyl-4-yloxy)-acetylamino]-thiophene-3-carboxylic acid]
	196 to 199 °C	COc1ccccc1-c1ccc(OCC(=O)Nc2cscc2C(=O)O)cc1 [Example 3, 4-[2-(2′-Methoxy-biphenyl-4-yloxy)-acetylamino]-thiophene-3-carboxylic acid]
0.0487 µM	247 to 251 °C	O=C(COc1ccc(-c2ccccc2)cc1)Nc1cscc1C(=O)O [Example 2, 4-[2-(Biphenyl-4-yloxy)-acetylamino]-thiophene-3-carboxylic acid]
